# Legend:
# [1] = test system: BT-549; experiment: panel of 60 human tumor cell lines, growth inhibition (Breast Cancer)
# [2] = test system: OVCAR-5; experiment: panel of 60 human tumor cell lines, growth inhibition (Ovarian Cancer)
# [3] = test system: OVCAR-8; experiment: as above
# [4] = test system: SK-OV-3; experiment: as above
# [5] = test system: DU-145; experiment: panel of 60 human tumor cell lines, growth inhibition (Prostate Cancer)
# [6] = test system: A549/ATCC; experiment: panel of 60 human tumor cell lines, growth inhibition (Non-Small Cell Lung Cancer); conditions: for Percent Growth: A549/ATCC
# [7] = test system: HOP-62; experiment: as above
# [8] = test system: NCI-H322M; experiment: as above
compound,measurement,setting,value
"C=C1C(=O)O[C@H]2[C@H]1CC/C(COC(=O)NCCc1ccccn1)=C\CC[C@@]1(C)O[C@@H]21 [JVM 61, ((1aR,7aS,10aS,10bS,E)-1a-methyl-8-methylene-9-oxo-1a,2,3,6,7,7a,8,9,10a,10b-decahydrooxireno[2′,3′:9,10]cyclodeca[1,2-b]furan-5-yl)methyl-(2-(pyridin-2-yl)ethyl)carbamate]",Percent Growth,"[1]; BT-549, Log10 Concentration −7.0",96%
same,Percent Growth,"[1]; BT-549, Log10 Concentration −8.0",96%
same,GI50,"[1]; Homo sapiens, BT-549",2.6 µM
same,CC50,"[1]; Homo sapiens, BT-549, read-out: LC50",33.6 µM
same,IC (TGI),"[1]; Homo sapiens, BT-549, read-out: TGI",10.1 µM
same,GI50,"[2]; Homo sapiens, OVCAR-5",10.2 µM
same,CC50,"[2]; Homo sapiens, OVCAR-5, read-out: LC50",49.5 µM
same,IC (TGI),"[2]; Homo sapiens, OVCAR-5, read-out: TGI",22.5 µM
same,Percent Growth,"[2]; OVCAR-5, Log10 Concentration −4.0",−94%
same,Percent Growth,"[2]; OVCAR-5, Log10 Concentration −5.0",51%
same,Percent Growth,"[2]; OVCAR-5, Log10 Concentration −6.0",96%
same,Percent Growth,"[2]; OVCAR-5, Log10 Concentration −7.0",97%
same,Percent Growth,"[2]; OVCAR-5, Log10 Concentration −8.0",107%
same,GI50,"[3]; Homo sapiens, OVCAR-8",4.39 µM
same,CC50,"[3]; Homo sapiens, OVCAR-8, read-out: LC50",65.1 µM
same,IC (TGI),"[3]; Homo sapiens, OVCAR-8, read-out: TGI",18.5 µM
same,Percent Growth,"[3]; OVCAR-8, Log10 Concentration −4.0",−67%
same,Percent Growth,"[3]; OVCAR-8, Log10 Concentration −5.0",25%
same,Percent Growth,"[3]; OVCAR-8, Log10 Concentration −6.0",96%
same,Percent Growth,"[3]; OVCAR-8, Log10 Concentration −7.0",100%
same,Percent Growth,"[3]; OVCAR-8, Log10 Concentration −8.0",108%
same,GI50,"[4]; Homo sapiens, SK-OV-3",26.2 µM
same,CC50,"[4]; Homo sapiens, SK-OV-3, read-out: LC50",> 100 µM
same,IC (TGI),"[4]; Homo sapiens, SK-OV-3, read-out: TGI",97.4 µM
same,Percent Growth,"[4]; SK-OV-3, Log10 Concentration −4.0",−1%
same,Percent Growth,"[4]; SK-OV-3, Log10 Concentration −5.0",87%
same,Percent Growth,"[4]; SK-OV-3, Log10 Concentration −6.0",103%
same,Percent Growth,"[4]; SK-OV-3, Log10 Concentration −7.0",187%
same,Percent Growth,"[4]; SK-OV-3, Log10 Concentration −8.0",106%
same,Percent Growth,"[5]; DU-145, Log10 Concentration −4.0",−87%
same,Percent Growth,"[5]; DU-145, Log10 Concentration −5.0",26%
same,Percent Growth,"[5]; DU-145, Log10 Concentration −6.0",97%
same,Percent Growth,"[5]; DU-145, Log10 Concentration −7.0",108%
same,Percent Growth,"[5]; DU-145, Log10 Concentration −8.0",102%
same,GI50,"[5]; Homo sapiens, DU-145",4.59 µM
same,CC50,"[5]; Homo sapiens, DU-145, read-out: LC50",47 µM
same,IC (TGI),"[5]; Homo sapiens, DU-145, read-out: TGI",16.9 µM
same,Percent Growth,[6]; Log10 Concentration −4.0,−54%
same,Percent Growth,[6]; Log10 Concentration −5.0,64%
same,Percent Growth,[6]; Log10 Concentration −6.0,6.7%
same,Percent Growth,[6]; Log10 Concentration −8.0,95%
same,GI50,"[6]; Homo sapiens, A549",13.1 µM
same,CC50,"[6]; Homo sapiens, A549, read-out: LC50",92 µM
same,IC (TGI),"[6]; Homo sapiens, A549, read-out: TGI",34.7 µM
same,Percent Growth,"[7]; HOP-62, Log10 Concentration −4.0",−65%
same,Percent Growth,"[7]; HOP-62, Log10 Concentration −5.0",91%
same,Percent Growth,"[7]; HOP-62, Log10 Concentration −6.0",108%
same,Percent Growth,"[7]; HOP-62, Log10 Concentration −7.0",102%
same,Percent Growth,"[7]; HOP-62, Log10 Concentration −8.0",99%
same,GI50,"[7]; Homo sapiens, HOP-62",18.4 µM
same,CC50,"[7]; Homo sapiens, HOP-62, read-out: LC50",79.7 µM
same,IC (TGI),"[7]; Homo sapiens, HOP-62, read-out: TGI",38.3 µM
same,GI50,[8]; Homo sapiens,22.5 µM
same,CC50,"[8]; Homo sapiens, read-out: LC50",> 100 µM
same,IC (TGI),"[8]; Homo sapiens, read-out: TGI",63.4 µM
same,Percent Growth,[8]; Log10 Concentration −4.0,−18%
same,Percent Growth,[8]; Log10 Concentration −5.0,87%
same,Percent Growth,[8]; Log10 Concentration −6.0,105%
same,Percent Growth,[8]; Log10 Concentration −7.0,103%
same,Percent Growth,[8]; Log10 Concentration −8.0,106%

# From patent US9469650B2, “Melampomagnolide B derivatives” (BOARD OF TRUSTEES OF THE UNIVERSITY OF ARKANSAS, priority 2013, dated 2016)
